Results on three compounds are retold here after patent publication EP4480493A1, “A RECOMBINANT HUMAN ALPHA-1 ANTITRYPSIN GLYCOPROTEIN FOR TREATING NON-VIRAL INFLAMMATORY DISEASES OF THE LUNG” (AATEC Medical GmbH, priority 2023, dated 2024).

Where a name gives a salt, the structure may show the parent alone.

The target of experiment [1] is T1, human neutrophil elastase (Homo sapiens, UniProt P08246).
T1 construct: purchased Merck Millipore 324681
T1 sequence (P08246 30-247 limits assumed): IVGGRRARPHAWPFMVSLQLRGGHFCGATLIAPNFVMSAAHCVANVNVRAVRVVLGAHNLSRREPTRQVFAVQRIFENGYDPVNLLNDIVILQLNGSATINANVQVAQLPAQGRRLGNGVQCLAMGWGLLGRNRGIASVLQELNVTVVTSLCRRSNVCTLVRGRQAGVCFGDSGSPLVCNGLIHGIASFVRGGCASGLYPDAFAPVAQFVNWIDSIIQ
Briefly: Neutrophil Elastase activity assay (fluorogenic AMC substrate). Further details: key to Neutrophil Elastase IC50 / Neutrophil Elastase IC90: - = inactive. The format is biochemical.

Experiment [2] deals with recombinant human TMPRSS2 (Homo sapiens, UniProt O15393). Description: TMPRSS2 activity assay (fluorogenic AMC substrate). The settings on record: read-out: TMPRSS2 IC90.
Chain of recombinant human TMPRSS2 (O15393 106-492 limits assumed): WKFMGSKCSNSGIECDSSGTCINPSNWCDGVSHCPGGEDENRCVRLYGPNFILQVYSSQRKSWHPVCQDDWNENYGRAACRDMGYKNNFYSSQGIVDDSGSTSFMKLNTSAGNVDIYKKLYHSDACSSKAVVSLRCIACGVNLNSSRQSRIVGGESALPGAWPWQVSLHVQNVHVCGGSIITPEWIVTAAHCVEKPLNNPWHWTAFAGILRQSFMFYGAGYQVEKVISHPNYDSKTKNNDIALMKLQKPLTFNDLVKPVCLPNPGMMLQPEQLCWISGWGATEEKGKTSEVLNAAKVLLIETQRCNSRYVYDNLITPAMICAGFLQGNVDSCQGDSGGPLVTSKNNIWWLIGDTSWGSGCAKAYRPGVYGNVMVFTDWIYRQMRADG
Procedure: Fluorescence intensity was measured at an excitation wavelength of 380 nm and emission wavelength of 460 nm. […] Half maximal inhibition concentrations (IC50) were calculated using a non-linear regression model.
In a next step, 50 µl of 20 µM BOC-Gln-Ala-Arg-AMC protease substrate (Bachem #4017019) was added and incubated for 2 h at 37°C. Fluorescence intensity was measured after 2 h at an excitation wavelength of 380 nm and emission wavelength of 460 nm in a SynergyTM H1 microplate reader (BioTek) with Gen5 3.04 software.
Therefore, the ability of rhAAT to inhibit recombinant TMPRSS2 was assessed analogous to the neutrophil elastase measurement.
IC50 and IC90 were calculated using a non-linear regression model in GraphPad Prism 9.
The target of experiment [3] is recombinant human TMPRSS2 enzyme (CusaBio #YP023924HU) (human) (UniProt O15393). Description: cell-based or functional assay.
Chain of recombinant human TMPRSS2 enzyme (CusaBio #YP023924HU) (human) (O15393 106-492 limits assumed): as above

One may read the IC90 as the concentration needed for an effect of 90%.

For `CN(C)C(=O)COC(=O)Cc1ccc(OC(=O)c2ccc(NC(=N)N)cc2)cc1` [Camostat mesylate], the “Neutrophil Elastase IC90” value in experiment [1] (non-linear regression) is “-”. Also, the “Neutrophil Elastase IC50” value in experiment [1] (non-linear regression, three independent experiments) is “-”. Besides, in experiment [1] (result in words, Figure 27), the “inhibition of neutrophil elastase activity” value is recorded as “did not inhibit”. Moreover, the 90% effect concentration (IC90) in experiment [2] turned out to be 9.2 nM.
Take “Prolastin (Grifols), human plasma-derived A1AT formulation (from UniProt P01009 25-418)”: in experiment [3], the TMPRSS2 IC50 (TMPRSS2 activity assay, fluorogenic BOC-Gln-Ala-Arg-AMC substrate) came to 79 nM.
In the case of “recombinant human alpha-1-antitrypsin (rhAAT) glycoprotein secreted from Pichia pastoris mutS strain 1B6 (from UniProt P01009 25-418)”, in experiment [3], the TMPRSS2 IC50 (TMPRSS2 activity assay, fluorogenic BOC-Gln-Ala-Arg-AMC substrate) was 74.1 nM.
